Experimental data as given in patent publication US10168342B2, “Lipid probes and uses thereof” (THE SCRIPPS RESEARCH INSTITUTE, priority 2015, dated 2019).
Like-named read-outs stand apart in the source and are kept apart here.

Experiments:
[1] = biological target: T1, AEA-DA lipid probe targets in Neuro2a cells (Mus musculus, UniProt O70503); conditions: for SILAC ratio, HSD17B12 (Q53GQ0): Neuro2a cells, AEA-DA probe
T1 sequence (O70503 1-312): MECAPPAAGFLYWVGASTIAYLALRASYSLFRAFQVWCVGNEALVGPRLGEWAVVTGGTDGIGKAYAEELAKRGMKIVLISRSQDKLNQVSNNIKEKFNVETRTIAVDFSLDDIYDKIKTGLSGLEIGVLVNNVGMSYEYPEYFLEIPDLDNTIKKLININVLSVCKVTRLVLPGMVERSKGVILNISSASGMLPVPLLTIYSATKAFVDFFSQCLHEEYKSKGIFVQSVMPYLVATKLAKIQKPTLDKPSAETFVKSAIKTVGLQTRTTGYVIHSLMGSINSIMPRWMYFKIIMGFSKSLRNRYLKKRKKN

[2] = biological target: T2, AEA-DA lipid probe targets in Neuro2a cells (Mus musculus, UniProt O88325)
T2 sequence (O88325 22-739): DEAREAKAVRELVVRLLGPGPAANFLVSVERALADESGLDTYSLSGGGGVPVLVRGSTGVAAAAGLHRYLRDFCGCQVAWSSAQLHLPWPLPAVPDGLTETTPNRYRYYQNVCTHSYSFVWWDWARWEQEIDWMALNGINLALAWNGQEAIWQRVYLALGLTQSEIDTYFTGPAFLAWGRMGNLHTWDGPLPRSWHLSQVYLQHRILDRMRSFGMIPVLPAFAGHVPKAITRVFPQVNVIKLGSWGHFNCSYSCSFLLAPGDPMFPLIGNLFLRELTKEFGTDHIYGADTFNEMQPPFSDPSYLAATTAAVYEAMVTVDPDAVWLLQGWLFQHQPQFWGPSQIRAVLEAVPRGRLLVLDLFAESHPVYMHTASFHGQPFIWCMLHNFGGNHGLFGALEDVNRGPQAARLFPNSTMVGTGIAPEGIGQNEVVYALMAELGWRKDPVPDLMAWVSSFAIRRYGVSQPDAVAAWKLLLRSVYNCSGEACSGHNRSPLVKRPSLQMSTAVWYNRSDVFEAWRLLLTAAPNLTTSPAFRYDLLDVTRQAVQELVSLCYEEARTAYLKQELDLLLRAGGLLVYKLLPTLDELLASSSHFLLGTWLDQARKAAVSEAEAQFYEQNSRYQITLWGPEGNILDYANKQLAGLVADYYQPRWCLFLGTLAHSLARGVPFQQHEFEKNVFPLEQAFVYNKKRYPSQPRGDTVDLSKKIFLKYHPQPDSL

[3] = biological target: T3, AEA-DA lipid probe targets in Neuro2a cells (Mus musculus, UniProt Q91XD7)
T3 sequence (Q91XD7 30-420): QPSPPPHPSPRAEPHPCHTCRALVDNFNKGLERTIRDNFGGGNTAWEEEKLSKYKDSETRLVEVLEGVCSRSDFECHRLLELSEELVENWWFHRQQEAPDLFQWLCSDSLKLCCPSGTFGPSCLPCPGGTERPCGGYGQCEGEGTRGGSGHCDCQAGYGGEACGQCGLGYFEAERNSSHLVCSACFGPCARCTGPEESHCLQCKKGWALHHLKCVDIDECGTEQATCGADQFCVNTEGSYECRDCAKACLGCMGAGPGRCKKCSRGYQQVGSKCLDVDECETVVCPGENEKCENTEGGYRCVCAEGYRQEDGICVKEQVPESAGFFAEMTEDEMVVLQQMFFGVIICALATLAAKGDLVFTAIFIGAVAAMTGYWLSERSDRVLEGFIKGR

[4] = biological target: AEA-DA lipid probe targets in Neuro2a cells (Mus musculus, UniProt P53994)
Chain of AEA-DA lipid probe targets in Neuro2a cells (Mus musculus, UniProt P53994) (P53994 whole entry): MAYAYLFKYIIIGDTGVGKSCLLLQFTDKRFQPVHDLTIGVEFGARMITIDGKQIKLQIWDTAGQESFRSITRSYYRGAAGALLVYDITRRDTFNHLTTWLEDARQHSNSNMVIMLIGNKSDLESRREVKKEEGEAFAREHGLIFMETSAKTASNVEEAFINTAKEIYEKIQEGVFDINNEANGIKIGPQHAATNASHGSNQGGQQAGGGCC

[5] = biological target: T4, AEA-DA lipid probe targets in Neuro2a cells (Mus musculus, UniProt Q8R0X7); conditions: for SILAC ratio, SGPL1 (O95470): Neuro2a cells, AEA-DA probe
T4 sequence (Q8R0X7 1-568): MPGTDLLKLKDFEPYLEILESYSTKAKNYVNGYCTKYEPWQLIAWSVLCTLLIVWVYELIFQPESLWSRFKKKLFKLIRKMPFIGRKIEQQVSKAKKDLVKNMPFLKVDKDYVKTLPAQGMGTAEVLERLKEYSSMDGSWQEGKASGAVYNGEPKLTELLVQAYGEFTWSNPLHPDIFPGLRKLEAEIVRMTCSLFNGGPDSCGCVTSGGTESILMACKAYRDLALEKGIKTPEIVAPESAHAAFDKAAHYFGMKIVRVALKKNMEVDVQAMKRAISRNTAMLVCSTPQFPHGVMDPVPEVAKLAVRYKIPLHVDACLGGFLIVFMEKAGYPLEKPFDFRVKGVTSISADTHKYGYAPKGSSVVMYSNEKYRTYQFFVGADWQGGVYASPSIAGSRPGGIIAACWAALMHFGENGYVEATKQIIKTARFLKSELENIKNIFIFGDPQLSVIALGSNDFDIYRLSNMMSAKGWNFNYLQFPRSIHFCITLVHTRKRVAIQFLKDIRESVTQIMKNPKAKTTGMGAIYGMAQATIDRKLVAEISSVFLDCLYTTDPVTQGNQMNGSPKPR

Compound	SILAC ratio, HSD17B12 (Q53GQ0) ([1]; competitor 25 μM)	SILAC ratio, Hsd17b12 ([1]; competitor 25 μM)	SILAC ratio Naglu ([2]; competitor 25 μM)	SILAC ratio, Creld1 ([3]; competitor 25 μM)	SILAC ratio Rab2a ([4]; competitor 25 μM)	SILAC ratio, SGPL1 (O95470) ([5]; competitor 25 μM)	SILAC ratio, Sgpl1 ([5]; competitor 25 μM)	further results
CCCCC/C=C\C/C=C\C/C=C\C/C=C\CCCC(=O)NCCO [AEA, anandamide, reference compound]								SILAC ratio, HSD17B12 (Q53GQ0) ([1]; competitor 200 μM): 2.2; SILAC ratio, Hsd17b12 ([1]; competitor 200 μM): 2.2; SILAC ratio Naglu ([2]; competitor 200 μM): 1.3; SILAC ratio, Creld1 ([3]; competitor 200 μM): 1.8; SILAC ratio Rab2a ([4]; competitor 200 μM): 1.3; SILAC ratio, SGPL1 (O95470) ([5]; competitor 200 μM): 2.7; SILAC ratio, Sgpl1 ([5]; competitor 200 μM): 2.7
O=C(/C=C/c1cccnc1)NCCCCC1CCN(C(=O)c2ccccc2)CC1 [FK-866, reference compound]	1.7	1.7	1.3	1.3	1.2	1.7	1.7	
CN1CCN(C(=O)c2c(-c3ccccc3)c3cc([N+](=O)[O-])ccc3n2C)CC1 [KML110, (1-Methyl-5-nitro-3-phenyl-1H-indol-2-yl)(4-methylpiperazin-1-yl)methanone]		1.7	1.4	1.8	1.3		1.4	
CN1CCN(C(=O)c2[nH]c3ccc([N+](=O)[O-])cc3c2-c2ccccc2)CC1 [MJN228, (4-Methylpiperazin-1-yl)(5-nitro-3-phenyl-1H-indol-2-yl)methanone]	1.6	1.6	1.3	1.8	1.5	1.5	1.5	SILAC ratio, Hsd17b12 ([1]; competitor 10 μM): 1.2; SILAC ratio, Hsd17b12 ([1]; competitor 50 μM): 1.7; SILAC ratio, Hsd17b12 ([1]; competitor 100 μM): 2.3; SILAC ratio Naglu ([2]; competitor 10 μM): 1.4; SILAC ratio Naglu ([2]; competitor 50 μM): 1.9; SILAC ratio Naglu ([2]; competitor 100 μM): 1.7; SILAC ratio, Creld1 ([3]; competitor 10 μM): 1.4; SILAC ratio, Creld1 ([3]; competitor 50 μM): 2.4; SILAC ratio, Creld1 ([3]; competitor 100 μM): 4.2; SILAC ratio Rab2a ([4]; competitor 10 μM): 1.4; SILAC ratio Rab2a ([4]; competitor 50 μM): 1.6; SILAC ratio Rab2a ([4]; competitor 100 μM): 1.6; SILAC ratio, Sgpl1 ([5]; competitor 10 μM): 1.3; SILAC ratio, Sgpl1 ([5]; competitor 50 μM): 1.8; SILAC ratio, Sgpl1 ([5]; competitor 100 μM): 2.7
C=CCN(C)CCCCCCOc1ccc(C(=O)c2ccc(Br)cc2)c(F)c1 [Ro 48-8071, reference compound]	0.9	0.9	0.3	1.4	1.1	1.2	1.2	
